Test results published in US20230037538A1, “ANTI-ALS COMPOUNDS” (Takeda Pharmaceutical Company Limited, priority 2021, published 2023).

Experiments:
Type in all cases: cell-based, human
[1] = test system: FTD affected fibroblasts; assay: Stress granule assay in FTD affected fibroblasts (TDP-43 / HuR immunostaining after arsenite stress); settings: vehicle (DMSO) alone set at 100, lower = fewer TDP-43 aggregates; for activity at 1 µM: Homo sapiens, Fibroblast, 1 μM compound, read-out: Normalized average number of TDP-43 positive HuR aggregates per cell at 1 μM; for Normalized average number of TDP-43 positive HuR aggregates per cell at 1.5 μM: 1.5 μM compound
Procedure: In this assay, TDP-43 aggregates in stress granules were quantified after 24 hrs of drug treatment followed by 90 minutes of 100 μM arsenite stress.
On day 1 20,000 patient derived fibroblasts per well were seeded in a 24 well glass bottom plate or 6000 cells per well in a 96 well plate. On day 2 compounds were added at the desired final concentration in fresh media to the respective wells. On day 3 sodium arsenite was added at a final concentration of 500 μM. Incubated at 37° C. for 60 mins. On day 9 wells were washed with PBS and fixed cells using 4% para formaldehyde (in PBS, prepared freshly, methanol free) for 15 mins at room temperature. Washed with PBS, blocked and permeabilized cells with 1% BSA+1% saponin (prepared in PBS) for 1 hour. For Immunostaining primary antibodies were made in 1% BSA (in PBS) and incubated overnight at 4° C. Rabbit polyclonal TDP-43 C-terminal antibody (Proteintech 12892-1-AP)-1:350; mouse monoclonal HuR antibody (Santa Cruz sc-5261)-1:500. On the next day, added the following secondary antibodies Alexa 594 anti-rabbit (Thermofisher Scientific) and Alexa 488 anti-mouse (Thermofisher Scientific) (1:500) in 1% BSA (in PBS) and kept in dark for 1-2 hours at room temperature. Washed and added DAPI in PBS for nuclear staining. The images were analyzed by the open source image analysis software CellProfiler 2.1.1 (offered by Broad Institute of Harvard and MIT—www.cellprofiler.org). This software contains various modules which can be used to analyze images in different ways.
The lower the number, the fewer the TDP-43 aggregates compared to vehicle (DMSO) alone, which is set at 100.

[2] = test system: Fibroblast from FTD affected individual; assay: Nucleocytoplasmic assay (NCA) in patient fibroblast, fibroblast from FTD affected individual; settings: compound at 1 μM; DMSO-treated cell set as 100
Procedure: (§1) Skin-derived fibroblasts cells from Amnyotrophic Lateral Sclerosis (ALS) and Frontotemporal Degeneration (FTD) patients or affected individual acquired from the National Institute of Neurological Disorders and Stroke (NINDS #ND32947, ND41006, ND42717) were grown in HyClone DMEM High Glucose (GE Healthcare Life Sciences) supplemented with 15% FBS and 1% NEAA (Non-Essential Amino Acids), at 37° C. in a humidified atmosphere of 5% CO2. On day 1600 cells per well were seeded in a 96 well glass bottom plate or 1200 cells per well in a 24 well glass bottom plate. Incubated for 4 days, at 37° C. in a humidified atmosphere of 5% CO2, allowed cells to grow for 4 days. On day added compounds including vehicle control at the desired final concentration in fresh media to the respective wells, allowed cells to grow for an additional 4 days. On day 9 washed wells with PBS and fixed cells using 4% para formaldehyde (in PBS, prepared freshly, methanol free) for 15 mins at room temperature. Washed with PBS, blocked and permeabilized cells with 1% BSA+1% saponin (prepared in PBS) for 1 hour. For immunostaining the following primary antibodies were added in 1% BSA (in PBS) and incubated overnight at 4° C. Rabbit polyclonal TDP-43 C-terminal antibody (Proteintech 12892-1-AP)-1:350; mouse monoclonal HuR antibody (Santa Cruz sc-5261)-1:500. On the next day, added the following secondary antibodies Alexa 594 anti-rabbit (Thermofisher Scientific) and Alexa 488 anti-mouse (Thermofisher Scientific) (1:500) in 1% BSA (in PBS) and kept it in dark for 1-2 hours at room temperature. Wash and add DAPI in PBS for nuclear staining.
(§2) The immuno-stained cells were imaged with Nikon Ti inverted fluorescence microscope having CSU-22 spinning disk confocal and EMCCD camera. Plan Apo 20×/0.75 objective and NIS-Elements AR software were used for image acquisition. At least 15 images per well were taken. The exposure times for TDP-43 and HuR remained constant across one experiment. Each image acquired (in .nd format) was exported into three individual channel images (for DAPI, TDP-43, HuR) in .tiff format. The images were analyzed by the open source image analysis software Cell Profiller to calculate the signal intensities of TDP-43 present in the nucleus and cytoplasm in each cell. The DAPI image was used to count the total number of cells. The TDP-43 and HuR images are used to count the number of cells containing TDP-43 and/or HuR nuclear staining.
(§3) The nucleus/cytoplasm ratio of intensities of TDP-43 in each compound-treated (at 1 μM) cells comparing to DMSO-treated cell (which is set as 100) were shown.

[3] = test system: Mutant TDP-43 fibroblast; assay: Nucleocytoplasmic assay (NCA) in patient fibroblast, mutant TDP-43 fibroblast; settings: compound at 1 μM; DMSO-treated cell set as 100
Procedure: as §1, §2, §3

[4] = test system: Mutant VCP fibroblast; assay: Nucleocytoplasmic assay (NCA) in patient fibroblast, mutant VCP fibroblast; settings: compound at 1 μM; DMSO-treated cell set as 100
Procedure: as §1, §2, §3

| SMILES | activity at 1 µM [1] | Normalized average number of TDP-43 positive HuR aggregates per cell at 1.5 μM [1] | nucleus/cytoplasm ratio of intensities of TDP-43, Fibroblast from FTD affected individual [2] | nucleus/cytoplasm ratio of intensities of TDP-43, Mutant TDP-43 fibroblast [3] | nucleus/cytoplasm ratio of intensities of TDP-43, Mutant VCP fibroblast [4] |
| --- | --- | --- | --- | --- | --- |
| COc1cc2c(cc1OCc1ccccc1)CCNC2/C=C/c1cnc2ncccn12 (centres unmarked) [AA, (E)-6-(benzyloxy)-1-(2-(imidazo[1,2-a]pyrimidin-3-yl)vinyl)-7-methoxy-1,2,3,4-tetrahydroisoquinoline] | 85% | – | – | – | – |
| COc1cc2c(cc1OCc1ccccc1)CCNC2/C=C/c1cnc2ncc(F)cn12 (centres unmarked) [AC, (E)-6-(benzyloxy)-1-(2-(6-fluoroimidazo[1,2-a]pyrimidin-3-yl)vinyl)-7-methoxy-1,2,3,4-tetrahydroisoquinoline] | 85.8% | – | – | – | – |
| COc1cc2c(cc1OCc1ccccc1)CCNC2/C=C/c1cnc2ncc(C(F)(F)F)cn12 (centres unmarked) [AD, (E)-6-(benzyloxy)-7-methoxy-1-(2-(6-(trifluoromethyl)imidazo[1,2-a]pyrimidin-3-yl)vinyl)-1,2,3,4-tetrahydroisoquinoline] | 83% | 71.00 | – | – | – |
| COc1cnc2ncc(/C=C/C3NCCc4cc(OCc5ccccc5)c(OC)cc43)n2c1 (centres unmarked) [AE, (E)-6-(benzyloxy)-7-methoxy-1-(2-(6-methoxyimidazo[1,2-a]pyrimidin-3-yl)vinyl)-1,2,3,4-tetrahydroisoquinoline] | – | 73.75 | – | – | – |
| COc1cc2c(cc1OCc1ccccc1)CCNC2/C=C/c1cnc2ncc(C)cn12 (centres unmarked) [AF, (E)-6-(benzyloxy)-7-methoxy-1-(2-(6-methylimidazo[1,2-a]pyrimidin-3-yl)vinyl)-1,2,3,4-tetrahydroisoquinoline] | – | 65.5 | – | – | – |
| CCOC(=O)c1cnc2ncc(/C=C/C3NCCc4cc(OCc5ccccc5)c(OC)cc43)n2c1 (centres unmarked) [AG, Ethyl (E)-3-(2-(6-(benzyloxy)-7-methoxy-1,2,3,4-tetrahydroisoquinolin-1-yl)vinyl)imidazo[1,2-a]pyrimidine-6-carboxylate] | 87% | – | – | – | – |
| COc1cc2c(cc1OCc1ccccc1)CCNC2/C=C/c1cnc2ncc(C(=O)O)cn12.Cl (centres unmarked) [AH, (E)-3-(2-(6-(benzyloxy)-7-methoxy-1,2,3,4-tetrahydroisoquinolin-1-yl)vinyl)imidazo[1,2-a]pyrimidine-6-carboxylic acid] | – | 71.4 | – | – | – |
| COc1cc(C)c(/C=C/C2NCCc3cc(OCc4ccccc4)c(OC)cc32)cc1OC (centres unmarked) [Example 1, 6-(benzyloxy)-1-[(E)-2-(4,5-dimethoxy-2-methylphenyl)ethenyl]-7-methoxy-1,2,3,4-tetrahydroisoquinoline] | 67% | – | 148 | 147 | 153 |
| COc1cc2c(cc1OCc1ccccc1)CCNC2/C=C/c1cc2c(cc1C)OCCO2 (centres unmarked) [Example 4, 6-(benzyloxy)-7-methoxy-1-[(E)-2-(7-methyl-2,3-dihydro-1,4-benzodioxin-6-yl)ethenyl]-1,2,3,4-tetrahydroisoquinoline] | 70.9% | – | – | 130 | – |
| COc1cc2c(cc1OCc1ccccc1)CCNC2/C=C/c1cc2c(cc1C)OCO2 (centres unmarked) [Example 5, 6-(benzyloxy)-7-methoxy-1-[(E)-2-(6-methyl-2H-1,3-benzodioxol-5-yl)ethenyl]-1,2,3,4-tetrahydroisoquinoline] | 83.3% | – | 139 | 137 | 179 |
| COc1cnc2c(c1)c(/C=C/C1NCCc3cc(OCc4ccccc4)c(OC)cc31)cn2C (centres unmarked) [Example 7, 6-(benzyloxy)-7-methoxy-1-[(E)-2-(5-methoxy-1-methyl-1H-pyrrolo[2,3-b]pyridin-3-yl)ethenyl]-1,2,3,4-tetrahydroisoquinoline] | 40% | – | 175 | 143 | 191 |
| COc1cc2c(cc1OCc1ccccc1)CCNC2/C=C/c1ccc(-c2cncnc2)cc1Cl (centres unmarked) [Example 9, 6-(benzyloxy)-1-{(E)-2-[2-chloro-4-(pyrimidin-5-yl)phenyl]ethenyl}-7-methoxy-1,2,3,4-tetrahydroisoquinoline] | – | – | – | – | 200 |
| COc1cc2c(cc1OCc1ccccc1)CCNC2/C=C/c1cn(C)c2nccc(OC)c12 (centres unmarked) [Example 26, 6-(benzyloxy)-7-methoxy-1-[(E)-2-(4-methoxy-1-methyl-1H-pyrrolo[2,3-b]pyridin-3-yl)ethenyl]-1,2,3,4-tetrahydroisoquinoline] | 59% | – | 146 | – | 256 |
